Experimental data: US20060069123A1, “Substituted dipiperidine CCR2 antagonists” (priority 2004, published 2006)
Like-named read-outs stand apart in the source and are kept apart here. Values belong to the compound of their own block, whether it stands above or below them.

Experiments:
CCR2 = molecular target: T1, CCR2 (Homo sapiens, UniProt P41597)
T1 sequence (P41597 1-360 isoform P41597-2): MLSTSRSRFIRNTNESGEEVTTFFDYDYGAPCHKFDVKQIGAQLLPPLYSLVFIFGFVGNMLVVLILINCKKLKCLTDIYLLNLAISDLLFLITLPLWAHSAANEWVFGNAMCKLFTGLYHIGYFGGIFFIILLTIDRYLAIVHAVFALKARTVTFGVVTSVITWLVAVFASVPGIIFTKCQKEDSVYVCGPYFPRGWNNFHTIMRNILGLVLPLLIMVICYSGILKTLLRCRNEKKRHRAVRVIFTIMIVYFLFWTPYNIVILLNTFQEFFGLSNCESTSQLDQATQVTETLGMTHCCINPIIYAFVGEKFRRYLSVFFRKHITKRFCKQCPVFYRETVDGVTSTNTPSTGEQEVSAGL

THP-1 cells [1] = assay: MCP-1 Induced Chemotaxis in THP-1 Cells; type: cell-based; details: Homo sapiens; THP-1 cells, MCP-1 0.01 μg/mL, 3 hours; read-out: Inhibition of MCP-1 Induced Chemotaxis IC50
THP-1 cells [2] = details: Homo sapiens, THP-1, read-out: Inhibition of MCP-1 Induced Calcium Ion Influx IC50

Compound: Nc1cc2c(C3CCN(C(C(=O)O)C4CCN(C(=O)/C=C/c5cc(F)c(F)c(F)c5)CC4)CC3)c[nH]c2cn1 (stereo not drawn) [Cpd 179, [4-(5-amino-1H-pyrrolo[2,3-c]pyridin-3-yl)-piperidin-1-yl]-{1-[(2E)-3-(3,4,5-trifluoro-phenyl)-acryloyl]-piperidin-4-yl}-acetic acid]
- IC50 (CCR2): 230 nM
- IC50 (THP-1 cells [1]): 140 nM
- IC50 (THP-1 cells [2]): 2060 nM

Compound: COc1ccc(C2CCN([C@H](CO)C3CCN(C(=O)/C=C/c4cc(F)cc(F)c4)CC3)CC2)cc1 [Cpd 180, (2E)-3-(3,5-difluoro-phenyl)-1-(4-{(1S)-2-hydroxy-1-[4-(4-methoxy-phenyl)-piperidin-1-yl]-ethyl}-piperidin-1-yl)-propenone]
- IC50 (CCR2): 70 nM
- IC50 (THP-1 cells [1]): 90 nM
- IC50 (THP-1 cells [2]): 120 nM

Compound: COc1ccc(C2CCN([C@@H](CO)C3CCN(C(=O)/C=C/c4cc(F)cc(F)c4)CC3)CC2)cc1 [Cpd 181, (2E)-3-(3,5-difluoro-phenyl)-1-(4-{(1R)-2-hydroxy-1-[4-(4-methoxy-phenyl)-piperidin-1-yl]-ethyl}-1-piperidin-1-yl)-propenone]
- IC50 (CCR2): 40 nM
- IC50 (THP-1 cells [1]): 70 nM
- IC50 (THP-1 cells [2]): 160 nM

Compound: O=C(/C=C/c1cc(F)cc(F)c1)N1CCC(C(CO)N2CCC(c3ccncc3)CC2)CC1 (stereo not drawn) [Cpd 182, (2E)-3-(3,5-difluoro-phenyl)-1-{4-[2-hydroxy-1-(3,4,5,6-tetrahydro-2H-[4,4′]bipyridinyl-1-yl)-ethyl]-piperidin-1-yl}-propenone]
- IC50 (CCR2): 330 nM
- IC50 (THP-1 cells [1]): 350 nM
- IC50 (THP-1 cells [2]): 7870 nM

Compound: O=C(/C=C/c1cc(F)c(F)c(F)c1)N1CCC(C(CO)N2CCC(c3ccncc3)CC2)CC1 (stereo not drawn) [Cpd 183, (2E)-1-{4-[2-hydroxy-1-(3,4,5,6-tetrahydro-2H-[4,4′]bipyridinyl-1-yl)-ethyl]-piperidin-1-yl}-3-(3,4,5-trifluoro-phenyl)-propenone]
- IC50 (CCR2): 470 nM
- IC50 (THP-1 cells [1]): 400 nM
- IC50 (THP-1 cells [2]): 9250 nM

Compound: O=C(/C=C/c1ccc(Cl)c(Cl)c1)N1CCC(C(CO)N2CCC(c3ccncc3)CC2)CC1 (stereo not drawn) [Cpd 185, (2E)-3-(3,4-dichloro-phenyl)-1-{4-[2-hydroxy-1-(3,4,5,6-tetrahydro-2H-[4,4′]bipyridinyl-1-yl)-ethyl]-piperidin-1-yl}-propenone]
- IC50 (CCR2): 840 nM
- IC50 (THP-1 cells [1]): 340 nM
- IC50 (THP-1 cells [2]): 4600 nM

Compound: O=C(/C=C/c1ccc(F)c(Br)c1)N1CCC(C(CO)N2CCC(c3ccncc3)CC2)CC1 (stereo not drawn) [Cpd 186, (2E)-3-(3-bromo-4-fluoro-phenyl)-1-{4-[2-hydroxy-1-(3,4,5,6-tetrahydro-2H-[4,4′]bipyridinyl-1-yl)-ethyl]-piperidin-1-yl}-propenone]
- IC50 (CCR2): 360 nM
- IC50 (THP-1 cells [1]): 960 nM
- IC50 (THP-1 cells [2]): 6100 nM

Compound: O=C(/C=C/c1cc(F)c(F)c(F)c1)N1CCC([C@@H](CO)N2CCC(c3c[nH]c4ccccc34)CC2)CC1 [Cpd 187, (2E)-1-(4-{(1S)-2-hydroxy-1-[4-(1H-indol-3-yl)-piperidin-1-yl]-ethyl}-piperidin-1-yl)-3-(3,4,5-trifluoro-phenyl)-propenone]
- IC50 (CCR2): 0.6 nM
- IC50 (THP-1 cells [1]): 2 nM
- IC50 (THP-1 cells [2]): 0.05 nM

Compound: O=C(/C=C/c1cc(F)c(F)c(F)c1)N1CCC([C@H](CO)N2CCC(c3c[nH]c4ccccc34)CC2)CC1 [Cpd 188, (2E)-1-(4-{(1R)-2-hydroxy-1-[4-(1H-indol-3-yl)-piperidin-1-yl]-ethyl}-piperidin-1-yl)-3-(3,4,5-trifluoro-phenyl)-propenone]
- IC50 (CCR2): 29.5 nM
- IC50 (THP-1 cells [1]): 20 nM
- IC50 (THP-1 cells [2]): 10 nM

Compound: O=C(/C=C/c1cc(F)c(F)c(F)c1)N1CCC(C(CO)N2CCC(c3ccc4c(c3)OCO4)CC2)CC1 (stereo not drawn) [Cpd 189, (2E)-1-{4-[1-(4-benzo[1,3]dioxol-5-yl-piperidin-1-yl)-2-hydroxy-ethyl]-piperidin-1-yl}-3-(3,4,5-trifluoro-phenyl)-propenone]
- IC50 (CCR2): 170 nM
- IC50 (THP-1 cells [1]): 720 nM
- IC50 (THP-1 cells [2]): 160 nM

Compound: O=C(/C=C/c1cc(F)cc(F)c1)N1CCC(C(CO)N2CCC(c3ccc4c(c3)OCO4)CC2)CC1 (stereo not drawn) [Cpd 190]
- IC50 (CCR2): 210 nM
- IC50 (THP-1 cells [1]): 200 nM
- IC50 (THP-1 cells [2]): 250 nM

Compound: Nc1ccc2[nH]cc(C3CCN(C(CO)C4CCN(C(=O)/C=C/c5cc(F)c(F)c(F)c5)CC4)CC3)c2n1 (stereo not drawn) [Cpd 191, (2E)-1-(4-{1-[4-(5-amino-1H-pyrrolo[3,2-b]pyridin-3-yl)-piperidin-1-yl]-2-hydroxy-ethyl}-piperidin-1-yl)-3-(3,4,5-trifluoro-phenyl)-propenone]
- IC50 (CCR2): 100 nM
- IC50 (THP-1 cells [1]): 150 nM
- IC50 (THP-1 cells [2]): 170 nM

Compound: O=C(/C=C/c1cc(F)cc(F)c1)N1CCC(C(CO)N2CCC(c3ccc(F)cc3)CC2)CC1 (stereo not drawn) [Cpd 192, (2E)-3-(3,5-difluoro-phenyl)-1-(4-{1-[4-(4-fluoro-phenyl)-piperidin-1-yl]-2-hydroxy-ethyl}-piperidin-1-yl)-propenone]
- IC50 (CCR2): 220 nM
- IC50 (THP-1 cells [1]): 350 nM
- IC50 (THP-1 cells [2]): 170 nM

Results, then the compound that gave them:

- IC50 (CCR2): 140 nM
- IC50 (THP-1 cells [1]): 1300 nM
- IC50 (THP-1 cells [2]): 140 nM
Compound: O=C(/C=C/c1cc(F)c(F)c(F)c1)N1CCC(C(CO)N2CCC(c3ccc(F)cc3)CC2)CC1 (stereo not drawn) [Cpd 193]

- IC50 (CCR2): 0.6 nM
- IC50 (THP-1 cells [1]): 0.2 nM
- IC50 (THP-1 cells [2]): 0.02 nM
Compound: CS(=O)(=O)Nc1ccc2[nH]cc(C3CCN(C(CO)C4CCN(C(=O)/C=C/c5ccc(Cl)c(Cl)c5)CC4)CC3)c2c1 (stereo not drawn) [Cpd 198, N-{3-[1-(1-{1-[(2E)-3-(3,4-dichloro-phenyl)-acryloyl]-piperidin-4-yl}-2-hydroxy-ethyl)-piperidin-4-yl]-1H-indol-5-yl}-methanesulfonamide]

- IC50 (CCR2): 20 nM
- IC50 (THP-1 cells [1]): 30 nM
- IC50 (THP-1 cells [2]): 4 nM
Compound: CS(=O)(=O)Nc1ccc2[nH]cc(C3CCN(C(COC(=O)/C=C/c4cc(F)cc(F)c4)C4CCN(C(=O)/C=C/c5cc(F)cc(F)c5)CC4)CC3)c2c1 (stereo not drawn) [Cpd 199, (2E)-3-(3,5-difluoro-phenyl)-acrylic acid 2-{1-[(2E)-3-(3,5-difluoro-phenyl)-acryloyl]-piperidin-4-yl}-2-[4-(5-methanesulfonylamino-1H-indol-3-yl)-piperidin-1-yl]-ethyl ester]

- IC50 (CCR2): 1 nM
- IC50 (THP-1 cells [1]): 3 nM
- IC50 (THP-1 cells [2]): 0.6 nM
Compound: CS(=O)(=O)Nc1ccc2[nH]cc(C3CCN(C(CO)C4CCN(C(=O)/C=C/c5cc(F)c(F)c(F)c5)CC4)CC3)c2c1 (stereo not drawn) [Cpd 201, N-{3-[1-(2-hydroxy-1-{1-[(2E)-3-(3,4,5-trifluoro-phenyl)-acryloyl]-piperidin-4-yl}-ethyl)-piperidin-4-yl]-1H-indol-5-yl}-methanesulfonamide]

- IC50 (CCR2): 19.3 nM
- IC50 (THP-1 cells [1]): 15 nM
- IC50 (THP-1 cells [2]): 8 nM
Compound: O=C(/C=C/c1cc(F)cc(F)c1)N1CCC(C(CO)N2CCC(c3c[nH]c4ncccc34)CC2)CC1 (stereo not drawn) [Cpd 202, (2E)-3-(3,5-difluoro-phenyl)-1-(4-{2-hydroxy-1-[4-(1H-pyrrolo[2,3-b]pyridin-3-yl)-piperidin-1-yl]-ethyl}-piperidin-1-yl)-propenone]

- IC50 (CCR2): 510 nM
- IC50 (THP-1 cells [1]): 1200 nM
- IC50 (THP-1 cells [2]): 5000 nM
Compound: COc1ccccc1C1CCN(C(CO)C2CCN(C(=O)/C=C/c3cc(F)cc(F)c3)CC2)CC1 (stereo not drawn) [Cpd 203, (2E)-3-(3,5-difluoro-phenyl)-1-(4-{2-hydroxy-1-[4-(2-methoxy-phenyl)-piperidin-1-yl]-ethyl}-piperidin-1-yl)-propenone]

- IC50 (CCR2): 40 nM
- IC50 (THP-1 cells [1]): 40 nM
- IC50 (THP-1 cells [2]): 20 nM
Compound: O=C(/C=C/c1cc(F)cc(F)c1)N1CCC(C(CO)N2CCC(c3c[nH]c4c3ccc[n+]4[O-])CC2)CC1 (stereo not drawn) [Cpd 205, (2E)-3-(3,5-difluoro-phenyl)-1-(4-{2-hydroxy-1-[4-(7-oxy-1H-pyrrolo[2,3-b]pyridin-3-yl)-piperidin-1-yl]-ethyl}-piperidin-1-yl)-propenone]

- IC50 (CCR2): 210 nM
- IC50 (THP-1 cells [1]): 190 nM
- IC50 (THP-1 cells [2]): 110 nM
Compound: O=C(O)C(C1CCN(C(=O)/C=C/c2cc(F)c(F)c(F)c2)CC1)N1CCC(c2c[nH]c3cccnc23)CC1 (stereo not drawn) [Cpd 207, [4-(1H-pyrrolo[3,2-b]pyridin-3-yl)-piperidin-1-yl]-{1-[(2E)-3-(3,4,5-trifluoro-phenyl)-acryloyl]-piperidin-4-yl}-acetic acid]

- IC50 (CCR2): 70 nM
- IC50 (THP-1 cells [1]): 190 nM
- IC50 (THP-1 cells [2]): 180 nM
Compound: CC(=O)NCC(C1CCN(C(=O)/C=C/c2cc(F)cc(F)c2)CC1)N1CCC(c2c[nH]c3ccccc23)CC1 (stereo not drawn) [Cpd 214, N-{2-{1-[(2E)-3-(3,5-difluoro-phenyl)-acryloyl]-piperidin-4-yl}-2-[4-(1H-indol-3-yl)-piperidin-1-yl]-ethyl}-acetamide]

- IC50 (CCR2): 90 nM
- IC50 (THP-1 cells [1]): 460 nM
- IC50 (THP-1 cells [2]): 20 nM
Compound: CC(=O)NCC(C1CCN(C(=O)/C=C/c2ccc(Cl)c(Cl)c2)CC1)N1CCC(c2c[nH]c3ccccc23)CC1 (stereo not drawn) [Cpd 215]

- IC50 (CCR2): 250 nM
- IC50 (THP-1 cells [1]): 700 nM
- IC50 (THP-1 cells [2]): 1800 nM
Compound: CC(=O)NCC(C1CCN(C(=O)/C=C/c2cccc(C)c2)CC1)N1CCC(c2c[nH]c3ccccc23)CC1 (stereo not drawn) [Cpd 216]

- IC50 (CCR2): 210 nM
- IC50 (THP-1 cells [1]): 620 nM
- IC50 (THP-1 cells [2]): 2000 nM
Compound: CC(=O)NCC(C1CCN(C(=O)Nc2ccc(Cl)c(Cl)c2)CC1)N1CCC(c2c[nH]c3ccccc23)CC1 (stereo not drawn) [Cpd 217]

- IC50 (CCR2): 30 nM
- IC50 (THP-1 cells [1]): 8 nM
- IC50 (THP-1 cells [2]): 20 nM
Compound: CC(=O)OCC(C1CCN(C(=O)/C=C/c2cc(F)cc(F)c2)CC1)N1CCC(c2c[nH]c3ccccc23)CC1 (stereo not drawn) [Cpd 235, acetic acid 2-{1-[(2E)-3-(3,5-difluoro-phenyl)-acryloyl]-piperidin-4-yl}-2-[4-(1H-indol-3-yl)-piperidin-1-yl]-ethyl ester]
